In assay [1] the test system is Rattus norvegicus. Put plainly: Antihepatotoxic activity Rattus norvegicus albino Wistar (rat) assessed as reduction of CCl4-induced reduction of serum total protein level at 50 mg/kg, po relative to control. The class given is functional. More on the design: scale not given: the % may be the effect or the level left.
Assay [2] has as its system Rattus norvegicus. Put plainly: Antihepatotoxic activity Rattus norvegicus albino Wistar (rat) assessed as recovery of CCl4-induced cell damage at 50 mg/kg, po by hematoxylin and eosin staining. It counts as functional, organism-based. More on the design: dose 50 mg/kg.
For assay [3], the system named is Rattus norvegicus. Briefly: Antihepatotoxic activity Rattus norvegicus albino Wistar (rat) assessed as reduction of CCl4-induced increase of serum SGPT level at 50 mg/kg, po relative to control. Also on record: scale not given: the % may be the effect or the level left. The class given is functional.
Assay [4] concerns Rattus norvegicus. Briefly: Antihepatotoxic activity Rattus norvegicus albino Wistar (rat) assessed as reduction of CCl4-induced increase of serum ALP level at 50 mg/kg, po relative to control. It counts as functional. Also on record: scale not given: the % may be the effect or the level left.
Assay [5] concerns Rattus norvegicus. Briefly: Antihepatotoxic activity Rattus norvegicus albino Wistar (rat) assessed as reduction of CCl4-induced increase of serum SGOT level at 50 mg/kg, po relative to control. It counts as functional. Also on record: scale not given: the % may be the effect or the level left.

Active and inactive are the calls of the source. The rule behind the calls is not given here.

Regarding `C=C(C)C(/C=C/[C@@H](C)[C@H]1CCC2C3CC=C4C[C@@H](O[C@@H]5O[C@H](CO)[C@@H](O)[C@H](O)[C@H]5O)CC[C@]4(C)C3CC[C@@]21C)CC` (stereo not given in full), the Activity in assay [1] turned out to be 121.19%; in assay [3] it was 52.25%; in assay [4], 74.77%; in assay [5], 57.71%. Also, in assay [2], the result was Active.

The values are drawn from ChEMBL document CHEMBL3046767, “Antihepatotoxic activity of a sterol glucoside from aerial parts of Clerodendrum phlomidis” (2012).
